Laboratory results published in patent publication US20140335154A1, “METHODS AND FORMULATIONS TO ACHIEVE TUMOR TARGETED DOUBLE STRANDED RNA MEDIATED CELL DEATH” (MULTICELL IMMUNOTHERAPEUTICS, INC., priority 2013, published 2014).
Like-named read-outs stand apart in the source and are kept apart here.

How the values were obtained:
THP-1 cells [1] = experiment: Cytokine production in THP-1 cells (ELISA / Bio-Plex); format: cell-based, human
Experimental: (§1) Analysis of Cytokines Release: Cells were plated into 96-well plate with the density of 2×10^4 cells/well, cultured and were allowed to become subconfluent. After changing to fresh medium, the cells were treated with 5 bp pA:pU with analogues of 5 bp pA:pU, 70 bp pA:pU, analogues 70 bp pA:pU, or control Poly(A:U) and Poly(I:C) at the final concentration of 100 μg/ml. Cells without treatment were the negative control and cells treated with 1 μg/ml LPS were the positive control. After incubation, the supernatants were collected, centrifuged and then put at −80° C. immediately. Select cytokines, such as IL-6, IL-12(p70), IFN-α2, Tumor Necrosis Factor-α (TNF-α), TNF-related apoptosis-inducing ligand (TRAIL), were analyzed by Bio-Plex Assay kits.
(§2) Experiments carried out in vitro compare low molecular weight dsRNAs (<15 bps) with high molecular weight dsRNAs (>70 bps). Data generated with dsRNA of similar size and chemical composition obtained by fractionation, indicate that low molecular weight dsRNAs (<15 bps) have substantial TNFalpha and cell death inducing properties in human monocytic THP-1 cells. […] The pro-inflammatory effect of low molecular weight dsrnas is evaluated by measuring cytokine production using elisa (r&d systems) in FIG. 3a as well as in FIG. 3b. cell proliferation, death, and apoptosis are measured by Ethidium bromide (EB), PI and YoPro staining (in FIG. 1), Fluorescence-Activated Cell Sorting (FACS) analysis and mtt assay, Annexin V and PI staining analyzed by flow cytometry (in FIGS. 3A, 3B, 4A, 4B, 4C, 5A and 5B).

[2] = tested on: human HCC cell line HepG2 and THP-1 cells; experiment: Cell apoptosis/necrosis, Annexin V and PI flow cytometry (FIG. 5B); format: cell-based; settings: for cell death: HepG2 and THP-1, 200 μg/ml
Experimental: (§3) Analysis of Cell Apoptosis/Necrosis: Cells were plated into 24-well plates with the density of 1×10^5 cells/well, and cultured for 48 hours before treatments. The 5 bp polyA:polyU and its analogue, control Poly(A:U) and Poly(I:C) were added at the final concentration of 200 μg/ml into the cell culture supernatants. Cells without treatment were the negative control and the cells treated with 1 μg/ml Lipopolysaccharide (LPS) were the positive control. After incubation for specified time, the cells were harvested and washed with ice-cold PBS, resuspended in 100 μl AnnexinV binding buffer at a concentration of 1×10^5 cells/100 μl and incubated with 2 μl AnnexinV-FITC for 15 minutes at room temperature in the dark. Samples were washed with binding buffer and resuspended again in 100 μl same buffer. After adding 5 μl Propidium Iodide (PI), the samples were diluted with binding buffer and analyzed by flow cytometry (BD Biosciences). Apoptotic cells were identified as an AnnexinV-FITC-positive/PI-negative population.
as §2

[3] = tested on: human HCC cell line PLC/PRC/5 and human HCC cell line Huh7; experiment: Cell apoptosis/necrosis, Annexin V and PI flow cytometry (FIG. 5A); format: cell-based; settings: for cell death: PLC/PRC/5 and Huh7, 200 μg/ml
Experimental: as §3, §2

[4] = tested on: mouse liver cancerous cell line BNL 1ME A.7R.1; experiment: MTT cytotoxicity on mouse liver cancerous cell line (FIG. 4B); format: cell-based; settings: dose-effect
Experimental: (§4) Analysis of Cytotoxicity and Anti-Proliferative Effect on Cells: Cytotoxicity was measured by MTT assay. Cells were seeded with the density of 5×10^3 cells/well in 96-well plate and incubated for 48 hours in a cell culture incubator, before being treated with compounds. Each compound was dissolved in RNase and DNase free PBS, and diluted to certain concentrations by the same PBS before being added into the cell culture supernatant. The final concentrations of 5 bps pA:pU were 50, 100, 150 and 200 μg/ml, and the gradient of 5 bps pA:pU s analogue was 50, 100, 300, 500 μg/ml. Poly(A:U) and Poly(I:C) were added at the final concentration of 200 μg/ml as controls. Cells without any treatment were the negative control. After incubation for specified times in the cell culture incubator, MTT reagent was added to the cells for the assay as described above.

[5] = tested on: human HCC lines Huh7, PLC/PRF/5, HepG2, primary liver cancer cells P7NSG59410 and P31NSG55368; experiment: MTT cytotoxicity and anti-proliferative effect on human liver cancer cells (FIGS. 4A, 4B); format: cell-based
Experimental: Analysis of Growth Curve: Cell lines were seeded at different initial densities in the 96-well plate for 7 days. The medium was changed every day. The viability and metabolic rate of cultured cells was determined daily by assaying the reduction of 3-(4,5-dimethyl thiazol-2-yl)-2,5-diphenyl tetrazolium bromide (MTT) to formazan. After incubation period, MTT was added into each well in final concentration of 0.5 mg/ml, and incubated at the same condition for 4 h. Then the formazan was collected and dissolved in 120 ul DMSO. The absorption was measured at 560-562 nm in an ELISA reader with 620 nm as reference wave.
as §4
as §2, with “bps).” for “bps). Data generated with dsRNA of similar size and chemical composition obtained by fractionation, indicate that low molecular weight dsRNAs (<15 bps) have substantial TNFalpha and cell death inducing properties in human monocytic THP-1 cells.”

[6] = tested on: human HCC cell line PLC/PRC/5; experiment: Cytokine production in HCC cell line PLC/PRC/5; format: cell-based; settings: for TNFalpha induction: PLC/PRC/5 cancer cells
Experimental: as §1, §2

[7] = tested on: human primary fibroblasts; experiment: MTT cytotoxicity on human primary fibroblasts (FIG. 4C); format: cell-based
Experimental: as §4

THP-1 cells [8] = experiment: MTT cytotoxicity on THP-1 cells (FIG. 4C); format: cell-based, human; settings: THP-1, dose-effect
Experimental: as §4, with “After incubation for specified times in the cell culture incubator, MTT reagent was added to the cells for the assay as described above.” left out
as §2, with “bps).” for “bps). Data generated with dsRNA of similar size and chemical composition obtained by fractionation, indicate that low molecular weight dsRNAs (<15 bps) have substantial TNFalpha and cell death inducing properties in human monocytic THP-1 cells.”

THLE2 cells = experiment: MTT cytotoxicity on THLE2 cells emulating normal human liver cells (FIG. 4C); format: cell-based
Experimental: as §4

[9] = tested on: human liver cancer cell lines Huh7 and HepG2; experiment: MTT assay of Lipofectamine formulated vs unformulated pA:pU (FIG. 6); format: cell-based; settings: Huh7 and HepG2, 24 hour treatment
Experimental: In one embodiment, 5 bp dsRNAs are formulated using Lipofectamine 2000 to form lipid-based nanoparticles. One exemplary method follows the steps of: 1) in a microfuge tube 1.5 ul of Lipofectamine was diluted to a final volume of 23.5 ul using the appropriate media (per cell type); 2) 25 ul of the appropriate 5 bp dsRNAs analog dilution (to achieve the desired final per well concentration) was added to the diluted Lipofectamine and the mixture was incubated at Room Temperature (RT) for 5 minutes to form lipo-complexes; 3) 250 ul of the appropriate media was added to achieve a final volume of 300 ul; 4) 100 ul of the mixture from step 3 was added to each replicate and the cells was incubated for 24 hours.
Huh7 and HepG2 Cells were plated in a 96 well plate at a density of 2500 cells per well. Cells were incubated for 24 hours. After 24 hours of incubation, the medium was removed and cells were treated with various formulations of 5 bp pA:pU in triplicate in their respective culture mediums with […] 10% FBS. Untreated cells and Dox (10 uM) were used as controls. Cells were incubated for an additional 24 hours. After the 24 hour drug treatment, the medium was removed. Fresh culture medium will be added and the MTT assay was performed using the Life Technologies Vybrant MTT kit. […] The plate was read at 570 nm.

[10] = tested on: THP-1, PLC/PRC/5, Huh7 and HepG2 cells; experiment: Cytotoxicity, cell death and apoptosis of higher molecular weight dsRNA and controls (FIGS. 3A, 3B, 5A and 5B); format: cell-based
Experimental: as §4
Analysis of Cell Apoptosis/Necrosis: Cells were plated into 24-well plates with the density of 1×10^5 cells/well, and cultured for 48 hours before treatments. The 5 bp polyA:polyU and its analogue, control Poly(A:U) and Poly(I:C) were added at the final concentration of 200 μg/ml into the cell culture supernatants. Cells without treatment were the negative control and the cells treated with 1 μg/ml Lipopolysaccharide (LPS) were the positive control. […] After adding 5 μl Propidium Iodide (PI), the samples were diluted with binding buffer and analyzed by flow cytometry (BD Biosciences). […]
as §2, with “bps).” for “bps). Data generated with dsRNA of similar size and chemical composition obtained by fractionation, indicate that low molecular weight dsRNAs (<15 bps) have substantial TNFalpha and cell death inducing properties in human monocytic THP-1 cells.”

[11] = tested on: cell line emulating normal hepatocytes; experiment: TNF-alpha production in a cell line emulating normal hepatocytes; format: cell-based, human
Experimental: as §1

[12] = tested on: PLC/PRC/5 and THP-1 cells; experiment: TNFalpha and IL-6 induction by higher molecular weight dsRNA and controls (FIGS. 3A, 3B); format: cell-based, human
Experimental: as §1
as §2, with “bps).” for “bps). Data generated with dsRNA of similar size and chemical composition obtained by fractionation, indicate that low molecular weight dsRNAs (<15 bps) have substantial TNFalpha and cell death inducing properties in human monocytic THP-1 cells.”

[13] = Huh7, PLC/PRF/5, HepG2, P7NSG59410, P31NSG55368

Substance: 2O′-methyl analogue of 5 base pairs polyA:polyU
- cytokine production by monocytes (THP-1 cells [1]; relative to native 5 bps pA:pU): attenuated
- cell death [2]: attenuated cytotstatic/cytotoxic profile
- cell death [3]: attenuated cytotstatic/cytotoxic profile
- cell growth inhibition and death inducing properties [4]: attenuated cytotstatic/cytotoxic profile
- cell growth inhibition and death inducing properties [5, 13]: significantly attenuated
- cell growth inhibition and death inducing properties ([5]; Huh7, PLC/PRF/5, HepG2, P7NSG59410, P31NSG55368, listed as 2O′-methyl analogue): less potent
- TNFalpha induction [6]: elevated

Substance: 5 base pairs polyadenylic-polyuridylic acid [5 bps pA:pU]
- cytotoxic or anti-proliferative effect on fibroblasts [7]: cytotoxic or anti-proliferative effect
- cytotoxic or anti-proliferative effect on fibroblasts ([7]; listed as 5 bp polyA:polyU): sensitive
- IL-6 induction (THP-1 cells [1]; THP-1 cells): substantially induced
- TNFalpha induction (THP-1 cells [1]; THP-1 cells): substantially induced
- cell death [2]: induces cell death
- cell death [3]: induces cell death
- cell growth inhibition and death inducing properties (THP-1 cells [8]; listed as low molecular weight dsRNA (5 bps)): anti-proliferative, pro-death effect
- cell growth inhibition and death inducing properties (THP-1 cells [8]; listed as polyA:polyU of 5 bps): cell growth inhibition and death inducing properties
- cytotoxicity on cells emulating normal human liver cells (THLE2 cells): only a modest effect
- cytotoxicity on cells emulating normal human liver cells (THLE2 cells; listed as 5 bp polyA:polyU): more refractory
- cytotoxicity on cells emulating normal human liver cells (THLE2 cells; listed as low molecular weight dsRNA of 5 bps): more attenuated cytotoxicity profile
- cell growth inhibition and death inducing properties [4]: cell growth inhibition and death inducing properties
- cell growth inhibition and death inducing properties [5, 13]: cell growth inhibition and death inducing properties
- TNFalpha induction [6]: substantially induced
- IL-6 induction ([6]; PLC/PRC/5 cells): substantially induced
- biological activity in MTT assay [9]: more biologically active than 15 bps
- primary mechanism of cytotoxicity [10]: cytolysis, with a minimal apoptosis component
- TNF-alpha production [11]: blunted

Substance: polyinosinic:polycytidylic acid [pI:pC, reference compound]
- cytotoxicity or anti-proliferative effect ([2]; HepG2 and THP-1): no cytotoxicity or anti-proliferative effect
- cell death [2]: minimal cell death or apoptosis
- cytotoxicity or anti-proliferative effect ([3]; PLC/PRC/5 and Huh7): no cytotoxicity or anti-proliferative effect
- cell death [3]: minimal cell death or apoptosis
- IL-6 inducing capabilities [12]: negligible
- TNFalpha inducing capabilities [12]: negligible
- cell death or apoptosis ([10]; FIGS. 3A, 3B, 5A and 5B): minimal cell death or apoptosis
- cytotoxicity or anti-proliferative effect ([10]; FIGS. 3A, 3B, 5A and 5B): no cytotoxicity or anti-proliferative effect
